Data: patent US8663934B2, “Cloned transmembrane receptor for 24-hydroxylated vitamin D compounds and uses thereof” (Shriners Hospital for Children, priority 2009, dated 2014)
Entries after “also recorded” stand apart in the source; their conditions may differ.

Legend:
[1] = target: T1, 24-hydroxylated vitamin D compound receptor (Mus musculus, UniProt Q7TNV1); experiment: Cellular dielectric spectroscopy (CellKey) in COS7 cells stably transfected with the receptor; format: cell-based; conditions: range of compound concentrations
T1 construct: The full-length 24-hydroxylated vitamin D compound receptor was subcloned into the pcDNA3.1 expression vector; expressed in transfected cells; host or cells: COS-7 cells, stably transfected (pcDNA3.1)
T1 sequence (Q7TNV1 1-275 isoform Q7TNV1-3): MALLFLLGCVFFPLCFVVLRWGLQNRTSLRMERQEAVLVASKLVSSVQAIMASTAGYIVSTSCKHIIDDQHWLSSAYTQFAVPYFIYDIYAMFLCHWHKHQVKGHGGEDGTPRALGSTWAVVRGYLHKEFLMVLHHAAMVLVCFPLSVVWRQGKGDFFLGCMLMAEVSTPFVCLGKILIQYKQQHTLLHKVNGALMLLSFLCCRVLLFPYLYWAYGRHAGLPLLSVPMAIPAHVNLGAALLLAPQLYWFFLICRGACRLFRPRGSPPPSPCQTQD
Description: FIG. 4. Binding saturation and specificity of the 24-hydroxylated vitamin D compound receptor. A, B. The full-length 24-hydroxylated vitamin D compound receptor was subcloned into the pcDNA3.1 expression vector and expressed by stable transfection into COST cells. Membrane fractions were prepared by differential centrifugation and binding assays were performed using [^3H]-24,25(OH)2D3 in the presence or absence of an excess of nonradioactive 24,25(OH)2D3. Bound and free ligand were separated by filtration on glass microfiber filters. […] C, D. COS7 cells stably transfected with an expression vector for the 24-hydroxylated vitamin D compound receptor were plated in a cellular dielectric spectroscopy apparatus and changes in bioimpedance (dZiec), representative of binding, were measured over a range of compound concentrations. C. Response to vitamin D compounds. D. Response to steroids.
In certain embodiments of the present invention, cellular dielectric spectroscopy is used to ascertain binding specificity (124). The technology is based on applying electrical current to cells within a microplate format and measuring changes in impedance. […] The plate is installed onto the system to obtain a baseline reading. […]
Another method used to ascertain binding specificity is cellular dielectric spectroscopy (124). […] The plate is installed onto the system to obtain a baseline reading. […]

ATF response element = ATF response element luciferase reporter (Cignal AARE) in receptor-transfected COS7 cells; format: cell-based; conditions: saturating dose
Description: FIG. 5. Activation of the ATF response element following binding of 24,25(OH)2D to the 24-hydroxylated vitamin D compound receptor. COS7 cells stably transfected with an empty expression vector (vector) or with an expression vector for the 24-hydroxyvitamin D compound receptor (24,25(OH)2D rep) were transiently transfected with a reporter construct in which the luciferase reporter is under the control of an ATF response element. Transfected cells were then treated with ethanol (vehicle) or a saturating dose of 24,25(OH)2D. A renilla luciferase constitutive expression vector was co-transfected to assess efficiency of […]. Results (mean±SEM) are expressed as fold-induction over treatment with vehicle.
In certain embodiments of the present invention where the Cignal Finder reporter system is employed, COS-7 cells stably transfected with the 24-hydroxylated vitamin D compound receptor are seeded in 24-well tissue culture plates (Nunc, Roskilde, Denmark) at a density of 20,000 cells per well in growth medium (high-glucose DMEM with HEPES, 10% FBS, and 400 μg/ml of Geneticin). […] The activity of firefly and renilla luciferases are measured sequentially on a Sirius Luminometer (Berthold Detection Systems GmbH, Pforzheim, Germany). The specific luciferase activity is expressed as the ratio of firefly/renilla luciferase activity. […]

[2] = target: T2, 24-hydroxylated vitamin D compound receptor (FAM57B) (Mus musculus, UniProt Q7TNV1); experiment: [3H]-24,25(OH)2D3 binding assay on membrane fractions of transfected COS-7 cells; conditions: for displacement of [3H]-24,25(OH)2D3 specific binding by excess cold compound: membrane fractions, excess of nonradioactive competitor; for specific binding of radioligand to receptor (saturation): membrane fractions of COS-7 cells expressing FAM57B
T2 construct: The full-length 24-hydroxylated vitamin D compound receptor was subcloned into the pcDNA3.1 expression vector; expressed in transfected cells; host or cells: COS-7 cells, stably transfected (pcDNA3.1)
T2 sequence (Q7TNV1 1-275 isoform Q7TNV1-3): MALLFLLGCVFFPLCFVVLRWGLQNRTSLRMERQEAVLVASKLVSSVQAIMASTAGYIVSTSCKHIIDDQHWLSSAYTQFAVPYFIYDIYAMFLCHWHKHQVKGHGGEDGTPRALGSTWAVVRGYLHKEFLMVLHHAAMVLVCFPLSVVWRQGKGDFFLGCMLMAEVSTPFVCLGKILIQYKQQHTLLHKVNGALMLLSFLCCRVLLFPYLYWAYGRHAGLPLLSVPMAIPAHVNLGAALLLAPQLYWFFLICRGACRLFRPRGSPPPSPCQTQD
Description: Membrane fractions of transfected COS-7 cells are prepared by differential centrifugation (66): cells are homogenized in buffer A (25 mM HEPES, 10 mM NaCl, 1 mM DTT at pH 7.4) and centrifuged at 20,000 g for 10 minutes. The resulting supernatant is then re-centrifuged at 20,000 g for 2×30 minutes. The resulting pellet is resuspended in buffer B (25 mM HEPES, 50 mM NaCl, 5 mM EDTA, 1 mM DTT at pH 7.4) and is used as a membrane fraction for binding assays.
Binding assays are performed on ice for 60 min in buffer B using [^3H]-24R,25(OH)2D3 (50 Ci/mmol; Amersham) in the presence or absence of a 200-fold excess of nonradioactive 24,25(OH)2D3. Bound and free ligand are separated by filtration on glass microfiber filters soaked in buffer B. The filters are rinsed with 10 ml of buffer B and are counted for radioactivity using a scintillation counter (36, 37, 66). Specific binding is then calculated as total binding minus non-specific binding measured in the presence of the excess of nonradioactive ligand.
Saturation binding analysis is performed using 100 μg of membrane fraction and 0.1 to 5 nM of [^3H]-24R,25(OH)2D3 and plotting specific binding as a function of ligand concentration (FIG. 4A). Saturation binding is repeated several times to minimize intra-assay variation and calculate binding affinity with accuracy. Affinity is determined using the saturation binding algorithm of the Prism software (GraphPad Software Inc., LaJolla, Calif.).
Binding specificity is further refined by performing competition binding assays on the membrane fractions with various nonradioactive vitamin D metabolites and other steroids (FIG. 4B). Binding is performed using 1 nM of [^3H]-24R,25(OH)2D3 and 100 μg of membrane fraction. Compete binding is done using 10-200 fold excess of 24,25(OH)2D3 (control displacement curve). Compete binding is also done using 10-200 fold excess of 25(OH)D3, 24S,25(OH)2D3 (the non-natural epimer of 24,25(OH)2D3), 1α(OH)D2, 1α,24(OH)D2, 1,24,25(OH)3D3, as well as dexamethasone, estradiol, and testosterone.

Cyp24a1-deficient mice = experiment: Rescue of impaired fracture healing in Cyp24a1-deficient mice (tibial osteotomy); format: in vivo, mouse; conditions: for effect on fracture repair: daily subcutaneous injection, 24,25-(OH)2D3 6.7 μg/kg, 1α,25-(OH)2D3 67 ng/kg
Description: FIG. 2: rescue of impaired fracture repair in Cyp24a1-deficient mice by treatment with 24,25-(OH)2D3. Osteotomy was performed and animals from each genotype were treated daily with vehicle, 1,25-(OH)2D3 (67 ng/kg) or 24,25-(OH)2D3 (6.7 ug/kg). The fracture callus was harvested at 14 days post-osteotomy and bone volume (BV) and tissue volume (TV) were measured by histomorphometry using the BioQuant Osteo image analysis software. WT, wild-type; cyp24a1−/−, mutant mice deficient for the Cyp24a1 gene.
A Cyp24a1-deficient mouse strain was used to determine the role of 24-hydroxylated vitamin D compounds during mammalian fracture repair. In wild-type mice, there is a significant increase in local expression of Cyp24a1 mRNA in the tibiae subjected to an osteotomy as compared to the unfractured contralateral tibiae. To identify the role of this change in gene expression on callus formation, four-month-old wild-type and Cyp24a1-deficient mice were subjected to a stabilized, transverse mid-diaphysial fracture of the tibia. Bones were collected at days 14 and 21 post-fracture and analyzed for histology and gene expression.
Control groups were injected with the vehicle (propylene glycol). […] Daily injection with 24,25-(OH)2D3 normalized the histological appearance of the callus and the measured static histomorphometric index (BV/TV, FIG. 2).

wild-type mice = conditions: cited from earlier work
rats = conditions: cited from earlier work
chickens = conditions: chick fracture, treatment with metabolite alone; cited from earlier work
rat = rat studies; cited from earlier work

Which “changes in bioimpedance (dZiec), representative of binding” value [1] does the source give for `C=C1CC[C@H](O)C/C1=C/C=C1\CCC[C@]2(C)[C@@H]([C@H](C)CC[C@@H](O)C(C)(C)O)CC[C@@H]12` [24,25-(OH)2D3] here?
Its value is “specifically binds”.

What about the “changes in bioimpedance (dZiec), representative of binding” value ([1]; listed as 24R,25(OH)2D3) of the same molecule?
Its value is “binding activity specific”.

And the “luciferase reporter fold-induction over treatment with vehicle” value (ATF response element)?
The value was “statistically significant”.

And the “displacement of [3H]-24,25(OH)2D3 specific binding by excess cold compound” value [2]?
Its value is “can be displaced”.

And the “type X collagen mRNA expression” value (Cyp24a1-deficient mice; all time points studied)?
The value was “rescued and normalized”.

What about the “histological appearance of the callus” value (Cyp24a1-deficient mice; daily injection 6.7 μg/kg) of the same molecule?
Its value is “normalized”.

What about the “static histomorphometric index (BV/TV)” value (Cyp24a1-deficient mice; daily injection 6.7 μg/kg, callus at 14 days post-osteotomy) of the same molecule?
Its value is “normalized”.

What about the “effect on fracture repair” value (Cyp24a1-deficient mice) of the same molecule?
The value was “rescue; also recorded: corrected”.

And the “effect on fracture repair” value (Cyp24a1-deficient mice; listed as 24,25(OH)2D3)?
Its value is “rescued”.

Which bone mass (wild-type mice) does the source give for `CC(C)NCC(O)COc1cccc2ccccc12` (centres unmarked) [propranolol] here?
The bone mass was “increase bone mass”.

And the bone defects (rats)?
The bone defects was “repair bone defects”.

For `C=C1/C(=C\C=C2/CCC[C@]3(C)[C@@H]([C@H](C)CCCC(C)(C)O)CC[C@@H]23)C[C@@H](O)C[C@@H]1O` [1α,25-(OH)2D3, reference compound], which “healing (mechanical properties of healed bones)” value (chickens) is on record?
Its value is “poor healing”.

And the “effect on fracture repair” value (Cyp24a1-deficient mice)?
The value was “no effect”.

Which “displacement of [3H]-24,25(OH)2D3 specific binding by excess cold compound” value [2] does the source give for `CC(=O)[C@H]1CC[C@H]2[C@@H]3CCC4=CC(=O)CC[C@]4(C)[C@H]3CC[C@]12C` [progesterone] here?
The value was “not”.

Which results are given for [^3H]-24R,25-(OH)2D3?
specific binding of radioligand to receptor (saturation) [2]: specific and saturable; specific binding of radioligand to receptor (saturation) ([2]; listed as [^3H]-24,25(OH)2D3): saturable

B1: parathyroid hormone (protein, UniProt P01270 32-115, looked up)
Parathyroid hormone: SVSEIQLMHNLGKHLNSMERVEWLRKKLQDVHNFVALGAPLAPRDAGSQRPRKKEDNVLVESHEKSLGEADKADVNVLTKAKSQ
modifications: Parathyroid hormone
notes: parathyroid hormone administered in rat fracture studies
Which fracture repair (rat) does the source give for B1 here?
Its fracture repair is “improve fracture repair”.
